# Experimental data reported in patent US20130196865A1, “METHOD FOR SELECTING AN IPS CELL” (THE GENERAL HOSPITAL CORPORATION, priority 2010, published 2013).
# Experiments:
# [1] = test system: Dlk1-Dio3 locus (IG-DMR) methylation in iPSCs; assay: Derivation of iPS cells in the presence of ascorbic acid, DNA methylation at the Dlk1-Dio3 locus; type: cell-based, mouse
# Description: These are 1) repression of an enzyme called Dnmt3a or 2) addition of ascorbic acid (Vitamin C) to do cell culture media during reprogramming (FIG. 15).
# MEFs with a doxycycline-inducible polycistronic reprogramming cassette in their genome (Stadtfeld, M. et al. A reprogrammable mouse strain from gene-targeted embryonic stem cells. Nature methods 7(1):53-5) were reprogrammed into iPS cells by culture in either doxycycline-containing ESC media or doxycycline-containing ESC media with 50 ng/μl ascorbic acid (Sigma A4544). Doxycline was withdrawn after 10-14 days of culture and emerging iPS cell colonies picked and expanded in regular ESC culture media (without doxycycline, without ascorbic acid). Pluripotency of established iPS cell clones was confirmed by marker gene expression and blastocyst injections.
# Genomic DNA was isolated using the DNeasy Blood and Tissue Kit (Qiagen) and bisulfite converted using the EpiTect Bisulfite Kit (Qiagen) with 100-1000 ng input. Converted DNA was used for PCR to amplify the regulatory IG-DMR region and PCR products were sequenced using the Pyrosequencing PSQ96 HS System (Biotage AB) (Stadtfeld, M. et al. Aberrant silencing of imprinted genes on chromosome 12qF1 in mouse induced pluripotent stem cells).
# [2] = test system: Gtl2^off and Gtl2^on iPSCs, ESCs; assay: Retinoic acid in vitro differentiation of iPSCs and ESCs, qPCR; type: cell-based, mouse; details: for Meg3/Gtl2 and Rian expression during differentiation: RA 5 days
# Description: To assess if silencing of Meg3/Gtl2 might be resolved during differentiation, Gtl2^off and Gtl2^on iPSCs as well as ESCs were exposed to the differentiation-stimulating agent retinoic acid (RA) for 5 days. […] The expression of imprinted genes outside of chromosome 12qF1 was not affected (FIG. 3f, bottom, and FIG. 10)
# (§1) cDNA was produced with the First Strand cDNA Synthesis Kit (Roche) using 1 μg of total RNA input. Real-time quantitative PCR reactions were set up in triplicate using 5 μl of cDNA (1:100 dilution) with the Brilliant II SYBR Green QPCR Master Mix (Stratagene) and run on a Mx3000P QPCR System (Stratagene).
# [3] = test system: Meg3/Gtl2 expression in Gtl2^off iPSC clone #45 subclones; assay: Valproic acid treatment of Gtl2off iPSC subclones, Meg3/Gtl2 expression by qPCR; type: cell-based, mouse
# Description: as §1
# [4] = test system: chromatin marks at the Gtl2 promoter; assay: Chromatin immunoprecipitation at the Meg3/Gtl2 locus after VA rescue; type: cell-based, mouse; details: VA-rescued clone
# Description: 20 million iPSCs, ESCs or MEFs were fixed with 1% formaldehyde for 10 minutes at room temperature (RT) and then lysed in 1 ml lysis buffer (50 mM Tris-HCl, pH 8.0, 10 mM EDTA, 1% SDS, protease inhibitors) for 20 minutes on ice. The lysate was split into three tubes and sonicated using Bioruptor for five times five minutes at high intensity, 30 sec on-30 sec off. After 10 minutes centrifugation, the supernatant was precleared for 1 hour at 4° C. with agarose beads preblocked with BSA (1 mg BSA for 10 ml beads) in IP Buffer (50 mMM Tris-HCl, pH8, 150 mM NaCl, 2 mM EDTA, 1% NP-40, 0.5% Sodium Deoxycholate, 0.1% SDS, protease inhibitors). […] of precleared chromatin per reaction diluted in 1 ml IP Buffer in presence of 2 ug antibody were used for each immunoprecipitation reaction according to manufacturer's protocol. The antibodies used for this study were: anti-aCH3 (06-5 99 Millipore), anti-acH4 (06-866, Millipore), anti-dimethyl K4 of H3 (07-030, Millipore), anti-trimethyl K27 of H3 (ab6002, Abcam) and normal rabbit IgG (Millipore). The precipitate was purified using Qiaquick PCR purification kit and was analyzed by qPCR using Brilliant II SYBR Green qPCR Master Mix (600828, Agilent Technologies) using the sequence specific primer sets. Gtl2: 5′-[…]-3′ (FWD) and 5′-[…]3′ (REV) and Pou5f1: 5′-[…]-3′ (FWD) and 5′-[…]-3′ (REV).
# [5] = test system: development of all-iPSC embryos/pups; assay: 4n blastocyst injection of VA-rescued iPSC clone; type: in vivo, mouse
# Description: 2n and 4n blastocyst injections were performed as described before (Eggan, K et al., PNAS USA 98(11):6209 (2001)). Briefly, female BDF1 mice were super-ovulated by intraperitoneal injection of PMS and hCG and mated to BDF1 stud males. Zygotes were isolated from females with a vaginal plug 24 hour after hCG injection. Zygotes for 2n injections were in vitro cultured for 3 days in vitro in KSOM media, blastocysts were identified, injected with ESCs or iPSCs and transferred into pseudopregnant recipient females. For 4n injections, zygotes were cultured overnight until they reached the 2-cell stage, at which point they were electrofused.
compound,measurement,setting,value
O=C1O[C@H]([C@@H](O)CO)C(O)=C1O [ascorbic acid],abnormal methylation in iPSCs,[1]; FIG. 15b,prevents abnormal methylation
same,"frequency of ""normal iPSCs""",[1]; ascorbic acid added to culture media during reprogramming,dramatically increased
"CC1=C(/C=C/C(C)=C/C=C/C(C)=C/C(=O)O)C(C)(C)CCC1 [retinoic acid, all-trans retinoic acid]",Meg3/Gtl2 and Rian expression during differentiation,[2]; Gtl2^off iPSCs,stable silencing
same,Dlk1 expression upon differentiation,"[2]; Gtl2^off iPSCs, RA treated",express high levels
same,Meg3/Gtl2 and Rian expression during differentiation,[2]; Gtl2^on iPSCs and ESCs,readily upregulated
same,Pou5f1 expression,"[2]; all RA-treated clones, 5 days",downregulation of Pou5f1
CCCC(CCC)C(=O)O [valproic acid],subclones exhibiting increased Meg3/Gtl2 expression,[3]; Gtl2^off iPSC subclones treated with VA,two out of 21
same,Meg3/Gtl2 expression level of rescued clone,"[3]; one VA-treated iPSC clone, versus ESCs",comparable to ESCs
same,activation-associated chromatin marks at the Meg3/Gtl2 locus,[4],re-appearance of H3K4 methylation and H3 acetylation
same,full-term development after 4n blastocyst injection,"[5]; VA-rescued clone, not seen with parental iPSCs",supported the development of several full-term pups
same,phenotype of full-term pups,[5]; pups from VA-rescued clone,"severely overgrown, however, and hence non-viable"
